The results in this text go back to US11767286B2, “Phenylpropionate compound, preparation method for same, and applications thereof” (SUZHOU PHARMAVAN CO., LTD, priority 2017, dated 2023).

For one series, the system named is SD rats. Kind of series: Acute toxicity, single-dose intravenous injection in SD rats. Type of series: in vivo. The settings on record: for tolerance: single-dose intravenous injection (5, 10, 20 mg/kg); for toxic side effects: single-dose intravenous injection up to 20 mg/kg, observed to day 8. An excerpt: In this example, Compound A and Compound C were studied for acute toxicity by a method described below.
Trial method: 30 SD rats, half male and half female, were used. The average weight was 160-200 g for female rats and 180-220 g for male rats when grouped. An individual weight should be within ±20% of the average weight. Before trial, animals were accommodated environment for at least 5 days, and healthy rats (female rats should be not pregnant) were selected as trial animals. Matter inspected during the accommodation period mainly was: whether the rats were consistent with quality indicators required in the order; inspection of general condition; and whether the weight was within the weight range required by the trial. Unqualified abnormal animals were excluded from the trial. A single dosage was injected through tail veins of rats at low, medium, or high dose. The doses were adjusted to be 5 mg/kg, 10 mg/kg, and 20 mg/kg, respectively according to blank preparation pre-trials. A control group was set in which a same volume of vehicle was intravenously injected.
The rats were observed about 0-2 h and 4-6 h after each administration. If a toxicity symptom occurs, the animal may be observed more times. (2) Gross anatomical observation: On the 8th day of the trial, all surviving rats in each group were dissected and observed, and administration sites and abnormal organs and tissues which were identified through gross anatomical observation to be potentially related to trial samples were photographed and recorded. (3) Disposal of dying animals: Status of rats and observation time were recorded, and their weights were measured. (4) Disposal of dead animals: The time of death or when a rat was found dead were recorded. The rat was measured for weight before quickly dissected for gross observation and speculated for cause of death.

The subject of a further series is TNF-α. The experiment in a line: Inflammatory factor TNF-α in blood and brain tissues of rats with acute cerebral ischemia-reperfusion. Format: in vivo, SD rats. The settings on record: 4 mg/kg iv 2 h after reperfusion; 4 h after administration; n=5. The protocol: (§1) Trial method: Effects on inflammatory factors and blood viscosity of rats with acute cerebral ischemia-reperfusion: 70 Male SD rats underwent an MACO surgery by a suture method, and after the surgery, alive rats were randomly grouped (into 7 groups, the number of successful animals in each group was guaranteed to be 6 to 8). Blood perfusion was recovered 2 h after MCAO, and corresponding trial medicaments were intravenously injected 2 h after blood reperfusion. 4 hours after the administration, blood was collected and the rats were sacrificed to take out brain tissues. The brain tissues and part of the blood were centrifuged to collect serum which was detected for inflammatory factors, and part of the blood was detected for blood viscosity by using a blood viscometer. Detected indicators: cerebral infarction area; inflammatory factors IL-1β and TNF-α; and blood viscosity.
(§2) Table 3 lists results of effects of phenylpropionate compounds (4 mg/kg) on inflammatory factors in blood and brain tissues of rats (n=5).

A further series has as its system IL-1β. The experiment in a line: Inflammatory factor IL-1β in blood and brain tissues of rats with acute cerebral ischemia-reperfusion. To be noted: 4 mg/kg iv 2 h after reperfusion; 4 h after administration; n=5. Format: in vivo, SD rats. The protocol: as §1, §2
In series [1] the test system is platelet aggregation induced with a platelet activating factor. Kind of series: Maximum platelet aggregation rate of rabbits, induced with PAF. Type of series: cell-based. The settings on record: rabbit plasma, 4 mg/kg as printed; for inhibition at 4 mg/kg: Oryctolagus cuniculus, Platelet, n=3, read-out: Inhibiton rate on Aggregation; for Maximum Aggregation Rate: n=3. The protocol: Effects on maximum platelet aggregation rate of rabbits: 3 Rabbits were anesthetized, and blood was collected from the heart to obtain 14 parts of plasma for each rabbit (1 ml per part of plasma). 7 Parts were induced with ADP to allow platelet aggregation, and 7 parts were induced with a platelet activating factor. After the induction, a solvent, positive control drug aspirin, and 5 samples to be trialed were separately added to the plasma, and maximum platelet aggregation rate was detected with a platelet aggregation meter. The trials were repeated 3 times, and an average was taken. Detected indicator: maximum platelet aggregation rate.
Table 4 lists results of effects of phenylpropionate compounds (4 mg/kg) on platelet aggregation rate of rabbits (n=3).

The test system of series [2] is rats with acute cerebral ischemia-reperfusion. Kind of series: Cerebral infarction area of rats with acute cerebral ischemia-reperfusion (MCAO, suture method). Also noted: Cerebral Infarction Area: unit not given here. The settings on record: n=5; for Cerebral Infarction Area: 4 mg/kg iv 2 h after reperfusion (2 h MCAO), sampled 4 h after administration; for inhibition in vivo at 4 mg/kg: Rattus norvegicus, 4 h, 4 mg/kg iv 2 h after reperfusion, vs solvent control, read-out: Percentage of Cerebral Infarction Area Reduction. Format: in vivo, SD rats. The protocol: as §1
Table 1 lists results of effects of phenylpropionate compounds (4 mg/kg) on cerebral infarction area of rats with acute cerebral ischemia (n=5).

`COc1cc(CCC(=O)O[C@H]2C[C@H]3CC[C@]2(C)C3(C)C)cc(F)c1O` [Compound A]: in the series with SD rats, the tolerance was found to be 20 mg/kg and the toxic side effects entry is “no obvious toxic side effects”. In addition, the TNF-α with TNF-α is 615 ± 42.9 ng/L. The compound further came in with an IL-1β in the series with IL-1β of 53.8 ± 6.4 ng/L. In series [1], the inhibition at 4 mg/kg worked out at 60.2% and the “Maximum Aggregation Rate” value amounted to 28.4 ± 6.4 %. In addition, in series [2], the “Cerebral Infarction Area” value was 18.6 ± 2.65 and the inhibition in vivo at 4 mg/kg stood at 49.3%.

On to `COc1cc(CCC(=O)O[C@H]2C[C@H]3CC[C@]2(C)C3(C)C)cc(OC)c1O` [Compound C], for which, in the series on SD rats, the tolerance is given as 20 mg/kg and the toxic side effects result is reported as “no obvious toxic side effects”. In the series with TNF-α, this compound yielded a TNF-α of 634 ± 25.1 ng/L. In the series with IL-1β, this compound showed an IL-1β of 59.3 ± 8.7 ng/L. Also, in series [1], the inhibition at 4 mg/kg came to 52.9% and the “Maximum Aggregation Rate” value amounted to 33.6 ± 7.9 %. Further, in series [2], the “Cerebral Infarction Area” value came to 19.6 ± 5.38 and the inhibition in vivo at 4 mg/kg is 46.6%.
